Laboratory results from patent US11123323B2, “Monoterpenes for treating respiratory disorders, in particular bronchopulmonary disorders” (Maria Clemetine Martin Klosterfrau Vertriebsqesellschaft MBH, priority 2008, dated 2021).

Legend:
[1] = tested on: NO production in stimulated human monocytes; assay: NO production in stimulated human monocytes in vitro (FIG. 3); assay type: cell-based
[2] = tested on: smokers with COPD (GOLD II to III); assay: Placebo-controlled double-blind study of additional therapy with 1,8-cineol in smokers with COPD; assay type: in vivo, human
Procedure: In a placebo-controlled double-blind study, the effect of an additional therapy with 1,8-cineol in the form of capsules which dissolve in the small intestine (Soledum® capsules, 3×200 mg/day, oral) on exacerbation rate and lung function was examined in 3 winter months of two successive years using 242 smokers with COPD (GOLD II to III).

[3] = tested on: patients with persistent bronchial asthma (GINA III); assay: Clinical add-on therapy with oral 1,8-cineol, persistent bronchial asthma GINA III, 12 patients; assay type: in vivo, human
Text: Even after a one-week therapy at the dose mentioned above, in 9 of the 12 subjects a slight to moderate improvement of lung function was achieved. After continuing therapy for a further twelve weeks, the persistent bronchial asthma had stabilized to such an extent that in 9 of the 12 patients the inhalative glucocorticoid required could be reduced by up to 30%.

[4] = tested on: IL-1beta production in LPS-stimulated human monocytes; assay: LPS-stimulated production of IL-1beta in human monocytes in vitro (ELISA); assay type: cell-based
Text: 1,8-Cineol intensifies in particular the action of subtherapeutic concentrations of beclometasone which are relevant for the peripheral respiratory tract.

[5] = tested on: hydrogen peroxide (H2O2) production; assay: Hydrogen peroxide production; settings: low concentrations relevant for the respiratory air and therapeutic range
[6] = tested on: production of IL-8 in ex-vivo stimulated peripheral human monocytes; assay: IL-8 production in ex-vivo stimulated peripheral monocytes of former smokers under additional therapy; assay type: cell-based; settings: long-term additional therapy with 1,8-cineol plus ICS-based therapy
Procedure: From these patients, monocytes were obtained during ongoing therapy with ICS and incubated in vitro with a topical glucocorticoid in a dose-dependent manner.

[7] = tested on: superoxide production (O2^− production) of normal human monocytes; assay: PMA-stimulated superoxide production (INT-formazan) of normal human monocytes in vitro; assay type: cell-based; settings: for INT-Formazan: PMA, 20 hours; for O2^− production: FIG. 3
[8] = tested on: patients with persistent bronchial asthma (GINA II); assay: Clinical add-on therapy with oral 1,8-cineol, persistent bronchial asthma GINA II, 10 patients; assay type: in vivo, human
Procedure: 10 patients 56 to 72 years of age with persistent bronchial asthma (GINA II) treated with a combination therapy of inhalative glucocorticoid (beclometasone, 2×200 μg/day by inhalation) and inhalative long-acting beta-2-sympathomimetics (LABA, salmeterol) and also oral theophyllin were given 1,8-cineol (Soledum® capsules) 4×200 mg/day orally for one week. Even after a one-week therapy at the dose mentioned above, in 8 of the 10 subjects a slight to moderate improvement of lung function was achieved. After continuing therapy for a further twelve weeks, the persistent bronchial asthma had stabilized to such an extent that in 7 of the 10 patients the inhalative glucocorticoid required could be reduced by up to 60% and in 2 of the 10 patients the inhalative glucocorticoids could be discontinued altogether at times. […] In 5 of the patients treated, the betamimetics required, too, could be reduced by up to 40%.

[9] = tested on: superoxide dismutases (SOD); assay: Superoxide dismutase activity
[10] = tested on: FCS-stimulated production of superoxides (O2^−) in normal human monocytes; assay: FCS-stimulated superoxide production of normal human monocytes in vitro (INT-formazan); assay type: cell-based; settings: for INT-Formazan / O2^−: FCS 10%; for INT-Formazan / Comparison to control (%): Table 4 series
Procedure: As already described, monocytes were isolated from 50 ml of venous blood which was repeatedly donated voluntarily for the experiments by healthy non-smoking subjects (n=4). […] To this end, the active compounds were incubated together with freshly isolated monocytes (10^5/ml) and the FCS stimulus (10%, from Sigma) for 20 hours in a cell culture medium (RPMI-1640, from Sigma). […] The determination of the cytosolic superoxide production is based on the reduction of the dye p-iodonitrotetrazolium violet (INTV), which reacts specifically with superoxide ions, to iodonitrotetrazolium formazan (formazan). INTV is taken up by the cells into the cytosol. Intracellularly, the nitrogen cycle of the INTV is reduced by free superoxide radicals, giving rise to a water-soluble intermediate and the water-insoluble formazan, which have their absorption maxima at 505 and 490 nm, respectively. […] At the end of an experiment, the cell lysate is (after treatment with hydrochloric acid) measured at 492 nm in a photometer. Here, the absorption of light is proportional to the amount of intracellularly accumulated INT-formazan which can then be determined using a formazan calibration curve. The INT-formazan accumulation for its part is determined as a measure for the intracellular production of superoxide.

[11] = therapeutic range of 1,8-cineol
[12] = 4×200 mg/day orally, after one week, add-on to beclometasone, salmeterol, theophyllin
[13] = 1,8-cineol 6 × 10^−6 mol/l (0.9 μg/ml), Table 6 series

`CC12CCC(CC1)C(C)(C)O2` [1,8-cineol, 1,3,3-trimethyl-2-oxabicyclo-[2.2.2]-octane] was tested, and the “production of NO” value ([1]; subtherapeutic concentrations (0.15 μg/ml=10^−6 mol/l)) was “inhibit the production of NO”, the “production of NO” value [1, 11] was “stimulating effects on the production of NO” and the “St. George's Respiratory Questionnaire (SGRQ), change in the verum group” value ([2]; 3×200 mg/day, oral) was −10.4 units. For the same molecule, the “lung function (FEV1), change in the verum group” value ([2]; 3×200 mg/day, oral) was “+5.1%”, the “reduction in the exacerbation rate compared to the placebo group” value ([2]; 3×200 mg/day, oral, 3 winter months of two successive years, 242 smokers) was −38.5% and the “further reduction of the frequency of exacerbations beyond known combined therapies” value ([2]; additional therapy with capsules which dissolve in the small intestine) was 25%. For the same molecule, the tolerability ([3]; 4×200 mg/day orally) was “tolerated well, without any side-effects”, the “subjects with a slight to moderate improvement of lung function” value [3, 12] was 9 of the 12 and the “patients in whom the inhalative glucocorticoid required could be reduced” value ([3]; after a further twelve weeks) was 9 of the 12. The “reduction of the betamimetics required” value ([3]; after a further twelve weeks) was “up to 25%”, the “reduction of the inhalative glucocorticoid required” value ([3]; after a further twelve weeks) was “up to 30%” and the “patients in whom the betamimetics required could be reduced” value ([3]; of 12 patients treated) was 4. For the same molecule, the “production of IL-1beta, change” value ([4]; 1,8-cineol on its own, 10^−6 mol/l, FIG. 1) was −32%, the “Effect vs. control Inhibition (%)” value ([4]; cineol 10^−6 mol/l) was 32.4±17% and the “Effect vs. cineol 10^−6 mol/l Inhibition (%)” value ([4]; cineol 10^−6 mol/l (the reference itself)) was 0 ± 17%. The IL-1beta ([4]; cineol 10^−6 mol/l, LPS, 20 hours) was 3548 ± 600 Pg/5 × 10^4 cells, the “Effect vs. control Inhibition (%)” value ([4]; cineol 10^−6 mol/l, listed as cineol) was 32.4 ± 17% and the “LPS-stimulated production of IL1-beta compared to the LPS control” value ([4]; therapeutically relevant concentrations of 1,8-cineol, FIG. 2, p<0.01) was “inhibited by therapeutically relevant concentrations of 1,8-cineol in a dose-dependent manner and significantly”. The “production of H2O2” value [5] was “inhibited the production of O2^− radicals and H2O2”, the “production of IL-8 compared to normal monocytes of nonsmokers” value [6] was “increased production of IL-8” and the “Comparison with control (%)” value ([7]; 0.0015 μg/ml (10^−8 mol/l)) was “+27.6 ± 4%”. The INT-Formazan ([7]; 0.0015 μg/ml (10^−8 mol/l)) was 5.364 ± 229 nmol/10^5, the “Comparison with control (%)” value ([7]; 0.015 μg/ml (10^−7 mol/l)) was “+24.5 ± 6%” and the INT-Formazan ([7]; 0.015 μg/ml (10^−7 mol/l)) was 5235 ± 341 nmol/10^5. For the same molecule, the “Comparison with control (%)” value ([7]; 0.15 μg/ml (10^−6 mol/l)) was “+26.7 ± 7%”, the INT-Formazan ([7]; 0.15 μg/ml (10^−6 mol/l)) was 5327 ± 360 nmol/10^5 and the “Comparison with control (%)” value ([7]; 0.3 μg/ml (2 × 10^−6 mol/l)) was “+31.8 ± 6%”. For the same molecule, the INT-Formazan ([7]; 0.3 μg/ml (2 × 10^−6 mol/l)) was 5540 ± 359 nmol/10^5, the “Comparison with control (%)” value ([7]; 0.6 μg/ml (4 × 10^−6 mol/l)) was “+43.8 ± 9%” and the INT-Formazan ([7]; 0.6 μg/ml (4 × 10^−6 mol/l)) was 6045 ± 534 nmol/10^5. For the same molecule, the “Comparison with control (%)” value ([7]; 0.9 μg/ml (6 × 10^−6 mol/l)) was “+45.3 ± 7%”, the INT-Formazan ([7]; 0.9 μg/ml (6 × 10^−6 mol/l)) was 6107 ± 437 nmol/10^5 and the “Comparison with control (%)” value ([7]; 1.2 μg/ml (8 × 10^−6 mol/l)) was −2.5 ± 6%. The INT-Formazan ([7]; 1.2 μg/ml (8 × 10^−6 mol/l)) was 4099 ± 234 nmol/10^5, the “Comparison with control (%)” value ([7]; 1.5 μg/ml (10^−5 mol/l)) was −42 ± 16% and the INT-Formazan ([7]; 1.5 μg/ml (10^−5 mol/l)) was 2438 ± 389 nmol/10^5. The “Comparison with control (%)” value ([7]; 3 μg/ml (2 × 10^−5 mol/l)) was −84.9 ± 22%, the INT-Formazan ([7]; 3 μg/ml (2 × 10^−5 mol/l)) was 634 ± 139 nmol/10^5 and the “O2^− production” value ([7]; low concentrations of 1,8-cineol) was “slightly induce O2^− production”. For the same molecule, the “O2^− production” value [7, 11] was “inhibited strongly”, the tolerability ([8]; 4×200 mg/day orally) was “tolerated well, without any side-effects” and the “patients in whom the inhalative glucocorticoid required could be reduced” value ([8]; 4×200 mg/day orally, after a further twelve weeks) was 7 of the 10. The “subjects with a slight to moderate improvement of lung function” value [8, 12] was 8 of the 10, the “patients in whom the inhalative glucocorticoids could be discontinued altogether at times” value ([8]; after a further twelve weeks) was 2 of the 10 and the “reduction of the betamimetics required” value ([8]; after a further twelve weeks) was “up to 40%”. The “reduction of the inhalative glucocorticoid (ICS dose) required” value ([8]; long-term therapy with oral 1,8-cineol, one plus twelve weeks) was “up to 60%”, the “patients in whom the betamimetics required could be reduced” value ([8]; of 10 patients treated) was 5 and the superoxide dismutase activity [9] was “partially inhibited”. The INT-Formazan ([10]; 0.000015 μg/ml (10^−10 mol/l)) was 21360 ± 1766 nmol/10^5, the “Comparison to control (%)” value ([10]; 0.000015 μg/ml (10^−10 mol/l)) was −0.7 ± 8% and the INT-Formazan ([10]; 0.00015 μg/ml (10^−9 mol/l)) was 21329 ± 1920 nmol/10^5. The “Comparison to control (%)” value ([10]; 0.00015 μg/ml (10^−9 mol/l)) was −0.8 ± 9%, the INT-Formazan ([10]; 0.0015 μg/ml (10^−8 mol/l)) was 21946 ± 1858 nmol/10^5 and the “Comparison to control (%)” value ([10]; 0.0015 μg/ml (10^−8 mol/l)) was 2 ± 8%. For the same molecule, the INT-Formazan ([10]; 0.015 μg/ml (10^−7 mol/l)) was 21899 ± 1879 nmol/10^5, the “Comparison to control (%)” value ([10]; 0.015 μg/ml (10^−7 mol/l)) was 1.8 ± 8% and the INT-Formazan ([10]; 0.15 μg/ml (10^−6 mol/l)) was 22286 ± 2036 nmol/10^5. The “Comparison to control (%)” value ([10]; 0.15 μg/ml (10^−6 mol/l)) was 3.6 ± 9%, the INT-Formazan ([10]; 0.3 μg/ml (2 × 10^−6 mol/l)) was 21499 ± 1959 nmol/10^5 and the “Comparison to control (%)” value ([10]; 0.3 μg/ml (2 × 10^−6 mol/l)) was 0.04 ± 9%. The INT-Formazan ([10]; 0.6 μg/ml (4 × 10^−6 mol/l)) was 17240 ± 1637 nmol/10^5, the “Comparison to control (%)” value ([10]; 0.6 μg/ml (4 × 10^−6 mol/l)) was −19.8 ± 9% and the INT-Formazan ([10]; 0.9 μg/ml (6 × 10^−6 mol/l)) was 12341 ± 1061 nmol/10^5. The “Comparison to control (%)” value ([10]; 0.9 μg/ml (6 × 10^−6 mol/l)) was −42.6±8%, the “Comparison to control (%)” value ([10]; 0.9 μg/ml (6 × 10^−6 mol/l), listed as 1,8-Cineol) was −42.6 ± 8% and the INT-Formazan ([10]; 1.2 μg/ml (8 × 10^−6 mol/l)) was 10086 ± 701 nmol/10^5. For the same molecule, the “Comparison to control (%)” value ([10]; 1.2 μg/ml (8 × 10^−6 mol/l)) was −53.1 ± 7%, the INT-Formazan ([10]; 1.5 μg/ml (10^−5 mol/l)) was 10202 ± 915 nmol/10^5 and the “Comparison to control (%)” value ([10]; 1.5 μg/ml (10^−5 mol/l)) was −52.6 ± 9%. For the same molecule, the “O2^−” value ([10]; 1,8-cineol 4 × 10^−6 mol/l (0.6 μg/ml), Table 5 series) was 16323 ± 1069 nmol/mL, the “O2^−” value [10, 13] was 9347 ± 494 nmol/mL and the Percent of control [10, 13] was −50.2±5%. For the same molecule, the “lowest antioxidatively active concentration” value ([10]; FCS-stimulated O2^− production) was 6e-06 mol/L and the “inhibition of the production of O2^− radicals” value ([10]; therapeutically relevant concentrations of 1,8-cineol, summary) was “about 50%”.
